Source: the supplement of paper PMC10627819

Legend:
Experiment in all cases: fitness (endpoint OD595 vs no drug) (fraction); higher = more growth
B. subtilis 168 = tested on: B. subtilis 168
Method in brief: (§1)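 Fitness was measured as bacterial growth in 384-well plates inoculated at OD595 0.01 (30 µl, or 55 µl for S. pneumoniae). Media were TSB, LB Lennox or CY, at 37 °C. OD595 was read every 30 min for 14 h and background-subtracted against the first reading. Fitness is OD595 at the transition into stationary phase divided by the robust mean of no-drug control wells, capped at 1.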

S. aureus DSM 20231 = tested on: S. aureus DSM 20231
Method in brief: as §1

S. pneumoniae D39V = tested on: S. pneumoniae D39V
Method in brief: as §1

S. aureus Newman = tested on: S. aureus Newman
Method in brief: as §1
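Further: OD595 on entry to stationary phase over no-drug wells; at most 1.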

CCC[C@@H]1C[C@@H](C(=O)N[C@@H]([C@H]2O[C@H](SC)[C@H](O)[C@@H](O)[C@H]2O)[C@H](C)Cl)N(C)C1 [Clindamycin] + CN(C)[C@@H]1C(O)=C(C(N)=O)C(=O)[C@@]2(O)C(O)=C3C(=O)c4c(O)ccc(Cl)c4[C@@](C)(O)[C@H]3C[C@@H]12 [Chlortetracycline]
fitness, one replicate
Details	first compound 0.0039 µg/mL	first compound 0.0078 µg/mL	first compound 0.0156 µg/mL	first compound 0.0312 µg/mL	first compound 0.0625 µg/mL	first compound 0.125 µg/mL
B. subtilis 168, partner 0.0475 µg/mL	0.996	0.88	0.814	–	–	–
B. subtilis 168, partner 0.095 µg/mL	0.911	0.831	0.721	–	–	–
B. subtilis 168, partner 0.19 µg/mL	0.779	0.697	0.633	–	–	–
S. aureus DSM 20231, partner 0.006 µg/mL	–	–	–	0.198	0.0507	0.029

Details	fitness
B. subtilis 168, first compound 0.0625 µg/mL, partner 0.0475 µg/mL	0.407
B. subtilis 168, first compound 0.0625 µg/mL, partner 0.095 µg/mL	0.362
B. subtilis 168, first compound 0.0625 µg/mL, partner 0.19 µg/mL	0.0596
B. subtilis 168, first compound 0.125 µg/mL, partner 0.0475 µg/mL	0.352
B. subtilis 168, first compound 0.125 µg/mL, partner 0.095 µg/mL	0.0555
B. subtilis 168, first compound 0.125 µg/mL, partner 0.19 µg/mL	0.0594
B. subtilis 168, first compound 0.25 µg/mL, partner 0.0475 µg/mL	0.0818
B. subtilis 168, first compound 0.25 µg/mL, partner 0.095 µg/mL	0.0386
B. subtilis 168, first compound 0.25 µg/mL, partner 0.19 µg/mL	0.0515
S. aureus DSM 20231, first compound 0.0312 µg/mL, partner 0.012 µg/mL	0.0617
S. aureus DSM 20231, first compound 0.0312 µg/mL, partner 0.024 µg/mL	0.038
S. aureus DSM 20231, first compound 0.0312 µg/mL, partner 0.048 µg/mL	0.0237
S. aureus DSM 20231, first compound 0.0625 µg/mL, partner 0.012 µg/mL	0.032
S. aureus DSM 20231, first compound 0.0625 µg/mL, partner 0.024 µg/mL	0.0211
S. aureus DSM 20231, first compound 0.0625 µg/mL, partner 0.048 µg/mL	0.0234
S. aureus DSM 20231, first compound 0.125 µg/mL, partner 0.012 µg/mL	0.0303
S. aureus DSM 20231, first compound 0.125 µg/mL, partner 0.024 µg/mL	0.0207
S. aureus DSM 20231, first compound 0.125 µg/mL, partner 0.048 µg/mL	0.0343
S. pneumoniae D39V, first compound 0.0125 µg/mL, partner 0.012 µg/mL	0.511
S. pneumoniae D39V, first compound 0.0125 µg/mL, partner 0.024 µg/mL	0.383
S. pneumoniae D39V, first compound 0.0125 µg/mL, partner 0.048 µg/mL	0.205
S. pneumoniae D39V, first compound 0.015 µg/mL, partner 0.375 µg/mL	0.0214
S. pneumoniae D39V, first compound 0.015 µg/mL, partner 0.75 µg/mL	0.0514
S. pneumoniae D39V, first compound 0.015 µg/mL, partner 1.5 µg/mL	0.0726
S. pneumoniae D39V, first compound 0.025 µg/mL, partner 0.012 µg/mL	0.334
S. pneumoniae D39V, first compound 0.025 µg/mL, partner 0.024 µg/mL	0.216
S. pneumoniae D39V, first compound 0.025 µg/mL, partner 0.048 µg/mL	0.122
S. pneumoniae D39V, first compound 0.03 µg/mL, partner 0.375 µg/mL	0.0643
S. pneumoniae D39V, first compound 0.03 µg/mL, partner 0.75 µg/mL	0.0687
S. pneumoniae D39V, first compound 0.03 µg/mL, partner 1.5 µg/mL	0.0605
S. pneumoniae D39V, first compound 0.05 µg/mL, partner 0.012 µg/mL	0.128
S. pneumoniae D39V, first compound 0.05 µg/mL, partner 0.024 µg/mL	0.13
S. pneumoniae D39V, first compound 0.05 µg/mL, partner 0.048 µg/mL	0.146
S. pneumoniae D39V, first compound 0.06 µg/mL, partner 0.375 µg/mL	0.0503
S. pneumoniae D39V, first compound 0.06 µg/mL, partner 0.75 µg/mL	0.0714
S. pneumoniae D39V, first compound 0.06 µg/mL, partner 1.5 µg/mL	0.0678

CCC[C@@H]1C[C@@H](C(=O)N[C@@H]([C@H]2O[C@H](SC)[C@H](O)[C@@H](O)[C@H]2O)[C@H](C)Cl)N(C)C1 [Clindamycin] + CO/N=C(\C(=O)N[C@@H]1C(=O)N2C(C(=O)O)=C(COC(N)=O)CS[C@H]12)c1ccco1 [Cefuroxime]
one replicate
Details	fitness
B. subtilis 168, first compound 0.0039 µg/mL, partner 0.195 µg/mL	0.442
B. subtilis 168, first compound 0.0039 µg/mL, partner 0.39 µg/mL	0.397
B. subtilis 168, first compound 0.0039 µg/mL, partner 0.78 µg/mL	0.389
B. subtilis 168, first compound 0.0078 µg/mL, partner 0.195 µg/mL	0.438
B. subtilis 168, first compound 0.0078 µg/mL, partner 0.39 µg/mL	0.367
B. subtilis 168, first compound 0.0078 µg/mL, partner 0.78 µg/mL	0.392
B. subtilis 168, first compound 0.0156 µg/mL, partner 0.195 µg/mL	0.366
B. subtilis 168, first compound 0.0156 µg/mL, partner 0.39 µg/mL	0.326
B. subtilis 168, first compound 0.0156 µg/mL, partner 0.78 µg/mL	0.28
B. subtilis 168, first compound 0.0625 µg/mL, partner 1.562 µg/mL	0.135
B. subtilis 168, first compound 0.0625 µg/mL, partner 3.125 µg/mL	0.0691
B. subtilis 168, first compound 0.0625 µg/mL, partner 6.25 µg/mL	0.0572
B. subtilis 168, first compound 0.125 µg/mL, partner 1.562 µg/mL	0.0526
B. subtilis 168, first compound 0.125 µg/mL, partner 3.125 µg/mL	0.031
B. subtilis 168, first compound 0.125 µg/mL, partner 6.25 µg/mL	0.0267
B. subtilis 168, first compound 0.25 µg/mL, partner 1.562 µg/mL	0.0448
B. subtilis 168, first compound 0.25 µg/mL, partner 3.125 µg/mL	0.028
B. subtilis 168, first compound 0.25 µg/mL, partner 6.25 µg/mL	0.0276
S. aureus Newman, first compound 0.0312 µg/mL, partner 0.04875 µg/mL	0.764
S. aureus Newman, first compound 0.0312 µg/mL, partner 0.0975 µg/mL	0.681
S. aureus Newman, first compound 0.0312 µg/mL, partner 0.195 µg/mL	0.718
S. aureus Newman, first compound 0.0625 µg/mL, partner 0.04875 µg/mL	0.358
S. aureus Newman, first compound 0.0625 µg/mL, partner 0.0975 µg/mL	0.304
S. aureus Newman, first compound 0.0625 µg/mL, partner 0.195 µg/mL	0.21
S. aureus Newman, first compound 0.125 µg/mL, partner 0.04875 µg/mL	0.111
S. aureus Newman, first compound 0.125 µg/mL, partner 0.0975 µg/mL	0.0924
S. aureus Newman, first compound 0.125 µg/mL, partner 0.195 µg/mL	0.078

fitness, B. subtilis 168
Details	first compound 0.0625 µg/mL	first compound 0.125 µg/mL	first compound 0.25 µg/mL
partner 0.04875 µg/mL	0.396	0.401	0.218
partner 0.0975 µg/mL	0.306	0.241	0.195
partner 0.195 µg/mL	0.39	0.217	0.217

N[C@@H]1CONC1=O [Cycloserine D] + C/C(=C\C(=O)OCCCCCCCCC(=O)O)C[C@@H]1OC[C@H](C[C@@H]2O[C@H]2[C@@H](C)[C@H](C)O)[C@@H](O)[C@H]1O [Pseudomonic acid]
fitness, S. aureus Newman, one replicate
Details	first compound 0.375 µg/mL	first compound 0.75 µg/mL	first compound 1.5 µg/mL
partner 0.0313 µg/mL	0.0489	0.0331	0.0484
partner 0.0625 µg/mL	0.0296	0.0319	0.0149
partner 0.125 µg/mL	0.0371	0.0384	0.031

N[C@@H]1CONC1=O [Cycloserine D] + CC1(C)S[C@@H]2[C@H](NC(=O)Cc3ccccc3)C(=O)N2[C@H]1C(=O)O [Penicillin G]
fitness, S. aureus Newman
Details	first compound 0.375 µg/mL	first compound 0.75 µg/mL	first compound 1.5 µg/mL
partner 0.0195 µg/mL	0.966	0.916	0.892
partner 0.039 µg/mL	0.922	0.932	0.957
partner 0.078 µg/mL	0.886	0.923	0.854

N[C@@H]1CONC1=O [Cycloserine D] + CC1=C(C(=O)O)N2C(=O)[C@@H](NC(=O)[C@H](N)c3ccccc3)[C@H]2SC1 [Cephalexin]
fitness
Details	first compound 0.125 µg/mL	first compound 0.25 µg/mL	first compound 0.375 µg/mL	first compound 0.5 µg/mL	first compound 0.75 µg/mL	first compound 1.5 µg/mL
B. subtilis 168, partner 0.125 µg/mL	0.865	0.894	–	0.848	–	–
B. subtilis 168, partner 0.25 µg/mL	0.909	0.857	–	0.921	–	–
B. subtilis 168, partner 0.5 µg/mL	0.911	0.88	–	0.867	–	–
S. aureus Newman, partner 0.25 µg/mL	–	–	0.948	–	0.955	0.926
S. aureus Newman, partner 0.5 µg/mL	–	–	0.972	–	≥ 1	0.971
S. aureus Newman, partner 1 µg/mL	–	–	0.992	–	≥ 1	0.995

B. subtilis 168, partner 1 µg/mL, one replicate
Details	fitness
first compound 0.125 µg/mL	≥ 1
first compound 0.25 µg/mL	0.91
first compound 0.5 µg/mL	0.985

N[C@@H]1CONC1=O [Cycloserine D] + CC(=O)NC[C@H]1CN(c2ccc(N3CCOCC3)c(F)c2)C(=O)O1 [Linezolid]
fitness, one replicate
Details	first compound 0.125 µg/mL	first compound 0.25 µg/mL	first compound 0.375 µg/mL	first compound 0.5 µg/mL	first compound 0.75 µg/mL	first compound 1.5 µg/mL
B. subtilis 168, partner 0.0625 µg/mL	0.943	0.866	–	0.846	–	–
S. aureus DSM 20231, partner 1 µg/mL	–	–	0.0372	–	0.0417	0.0279

fitness
Details	first compound 0.125 µg/mL	first compound 0.25 µg/mL	first compound 0.375 µg/mL	first compound 0.5 µg/mL	first compound 0.75 µg/mL	first compound 1.5 µg/mL
B. subtilis 168, partner 0.125 µg/mL	0.566	0.574	–	0.562	–	–
B. subtilis 168, partner 0.25 µg/mL	0.135	0.115	–	0.13	–	–
B. subtilis 168, partner 0.5 µg/mL	0.0466	0.0569	–	0.0486	–	–
S. aureus DSM 20231, partner 0.125 µg/mL	–	–	0.913	–	0.837	0.885
S. aureus DSM 20231, partner 0.25 µg/mL	–	–	0.517	–	0.597	0.537
S. aureus DSM 20231, partner 0.5 µg/mL	–	–	0.162	–	0.168	0.162
